Experimental data as given in patent publication US20190185507A1 (priority 2016, published 2019).

Key:
[1] = system: HCV-Jc-1 tagged to a yellow fluorescent protein; conditions: after 48 h of infection; Liu et al., Antimicrob. Agents Chemother. 2015; cited from earlier work
[2] = Bi-directional Caco-2 cell permeability assay; conditions: human, Caco-2, pH 7.4
Experimental: (§1) The bi-directional Caco-2 cell permeability assay was performed as described as follows: Caco-2 cells (ECACC) were seeded onto 24-well Transwell plates at 2×10^5 cells per well and used in confluent monolayers after a 21 day culture at 37° C. under 5% CO2. Test and control compounds (propranolol, vinblastine), prepared in DMSO, were added (10 μM, 0.1% DMSO final, n=2) to donor compartments of the Transwell plate assembly in assay buffer (Hanks balanced salt solution supplemented with 25 mM HEPES, adjusted to pH 7.4) for both apical to basolateral (A>B) and basolateral to apical (B>A) measurements. Incubations were performed at 37° C., with samples removed from both donor and acceptor chambers at T=0 and 1 hour and compound analysed by mass spectrometry (LC-MS/MS) including an analytical internal standard.
(§2) Apparent permeability (Papp) values were determined from the relationship: Papp=[CompoundAcceptor T=end]×VAcceptor/([CompoundDonor T=0]×VDonor)/incubation time×VDonor/Area×60×10-6 cm/s
(§3) Where V is the volume of each Transwell compartment (apical 125 μL, basolateral 600 μL), and concentrations are the relative MS responses for compound (normalized to internal standard) in the donor chamber before incubation and acceptor chamber at the end of the incubation.
(§4) Area=area of cells exposed for drug transfer (0.33 cm2).
(§5) Efflux ratios (Papp B>A/Papp A>B) were calculated for each compound from the mean Papp values in each direction.
(§6) Lucifer Yellow (LY) was added to the apical buffer in all wells to assess viability of the cell layer.
(§7) Compound recovery from the wells was determined from MS responses (normalized to internal standard) in donor and acceptor chambers at the end of incubation compared to response in the donor chamber pre-incubation.

[3] = system: Caco-2 cells; experiment: Bi-directional Caco-2 cell permeability assay; conditions: for permeability classification in the A>B direction: Caco-2; for efflux transporter substrate finding: efflux ratio larger than 2
Experimental: as §1, §2, §3, §4, §5, §6, §7

[4] = system: HCV (Jc-1 Wild-type virus); experiment: Efficacy testing of Sofosbuvir and n-Propyl-Sofosbuvir in HCV-infected Huh7.5 cells, quantitative PCR of HCV RNA in supernatant; assay type: cell-based, Hepatitis C virus; conditions: for virus reduction / Ct-value (threshold cycle) of HCV-RNA: single application 48 h post infection; for virus reduction: two days treatment, inferred from Ct 28 vs 25; for Ct-value (threshold cycle) of HCV-RNA: μM range down to lowest dose, RNA extracted two days later, SYBR Green kit, untreated control Ct around 25 (FIG. 1); for antiviral profile (reduction of viral titer): single application, 72 h, concentrations down to 9 nM, Altona HCV quantification kit (FIG. 4); for amount of viral RNA (viral load) / reduction of viral RNA: two-time application, highest concentrations; for amount of viral RNA (viral load): CE-labeled PCR HCV quantification kit, controls around 10^7 IU/ml (FIG. 7); for reduction of viral RNA: versus controls
Experimental: HCV histochemistry and determination of virus titers. To determine virus titers, the protocol described by Linden bach et al. (2005) is slightly modified. 1×10^4 Huh-7.5 cells or 0.7×10^4 Lunet cells were seeded per 96-well 24 h prior to infection. Six wells are infected simultaneously with the same dilution of filtered cell culture supernatants of HCV transfected or infected cells. Usually, the first dilution is a 1:10 dilution followed by 1:6 dilutions. 72 h after infection, the cells are washed once with PBS and then fixed in ice-cold methanol for 20 min at −20° C. Afterwards, the cells are washed with PBS and then permeabilized with 0.5% Triton X-100 in PBS for 5 min at RT. The first antibody detecting the HCV NSSA protein (9E10) is diluted 1:2000 in PBS and was incubated on the cells for 1 h. Then the cells are washed again three times with PBS and stained with the secondary antibody (goat a-mouse coupled to HRP, Sigma) 1:200 in PBS for 45 min at RT. To detect the HCV positive cells, the wells are first washed again three times with PBS and then the HRP activity is detected by the addition of 30 μl Carbazole substrate/96-well for 15 min at RT. Afterwards, the substrate is replaced with water and the wells were analyzed by light microscopy for positive cells. The 50% tissue culture infectious dose (TCID50) is calculated based on the methods described by Spearman and Karber. By this, the concentrations of a virus isolation needed to infect 50% of a given number of wells is determined (Spearman, 1908). qPCR of viral supernatant. Total RNA was extracted by the Altostar system according to the protocol of the manufacturer. A Power SYBR Green RNA-to-Ct 1-step kit (Applied Biosystems) is used to quantify the amount of HCV RNA. Primers specific for the 5′ UTR are 5′-TGCGGAACCGGTGAGTACA-3′ (forward) and […]. The PCR program conditions are as follows: 30 min at 48° C. for reverse transcription, 10 min at 95° C. for enzyme activation, and 40 cycles of amplification with 15 s at 95° C. for denaturation and 1 min at 60° C. for annealing and extension. Standard curve reactions are run in parallel by using serially diluted Jc1/Gluc2A plasmid ranging from 2.0×10^7 to 2.0×10^0 copies. To confirm obtained for experiment 3 (FIGS. 4 and 7), PCR was performed using the Atlona HCV-quantification kit.
Efficacy Testing of Sofosbuvir and n-Propyl-Sofosbuvir (compound I″a). Huh7.5 cells (1×10^4 per well) were seeded in a 96-well plate. The following day cells were infected with 8500 TCID50/well of HCV (Jc-1 Wild-type virus) for infection. After 48 h cells were treated with Sofosbuvir, n-Propyl-Sofosbuvir and as a negative control with the solvent used for Sofosbuvir, n-Propyl-Sofosbuvir (DMSO/EtOH) at concentrations given in the Figures. Two days or three later, supernatants were harvested and RNA was extracted by the Altostar system according to the protocol of the manufacturer. Quantitative PCR was performed using the Atlona HCV-quantification kit as recommended by the manufacturer.
In one set of experiments, Sofosbuvir and n-Propyl-Sofosbuvir were applied 48 h post infection and again 24 h later as indicated by FIG. 5.
All experiments shown represent the mean of at least two independent sets of data performed in duplicates.

Compound	IC50 [1]	Papp A→B at 1 h, 10 μM [2]	efflux ratio at 1 h, 10 μM [2]	permeability classification in the A>B direction [3]	efflux transporter substrate finding [3]	virus reduction [4]	Ct-value (threshold cycle) of HCV-RNA [4]	antiviral profile (reduction of viral titer) [4]	amount of viral RNA (viral load) [4]	reduction of viral RNA [4]
CC(C)OC(=O)[C@H](C)N[P@](=O)(OC[C@H]1O[C@@H](n2ccc(=O)[nH]c2=O)[C@](C)(F)[C@@H]1O)Oc1ccccc1 [Sofosbuvir, (S)-isopropyl 2-(((S)-(((2R,3R,4R,5R)-5-(2,4-dioxo-3,4-dihydropyrimidin-1(2H)-yl)-4-fluoro-3-hydroxy-4-methyltetrahydrofuran-2-yl)methoxy)(phenoxy)phosphoryl)-amino)propanoate]	> 10 µM	4 ×10⁻⁶ cm/s	4.6	low permeable	substrates of efflux transporters	about 1 log	around 28	comparable antiviral profile	6.5×10^5 IU/ml	about 95%
CCCOC(=O)[C@H](C)N[P@](=O)(OC[C@H]1O[C@@H](n2ccc(=O)[nH]c2=O)[C@](C)(F)[C@@H]1O)Oc1ccccc1 [n-Propyl-Sofosbuvir, (S)-n-propyl 2-(((S)-(((2R,3R,4R,5R)-5-(2,4-dioxo-3,4-dihydropyrimidin-1(2H)-yl)-4-fluoro-3-hydroxy-4-methyltetrahydrofuran-2-yl)methoxy)(phenoxy)phosphoryl)-amino)propanoate]	–	2 ×10⁻⁶ cm/s	4.4	low permeable	substrates of efflux transporters	about 1 log	around 28	comparable antiviral profile	6.5×10^5 IU/ml	about 95%
CC[C@]1(O)C[C@@H]2CN(CCc3c([nH]c4ccccc34)[C@@](C(=O)OC)(c3cc4c(cc3OC)N(C)[C@H]3[C@@](O)(C(=O)OC)[C@H](OC(C)=O)[C@]5(CC)C=CCN6CC[C@]43[C@@H]65)C2)C1 [vinblastine]	–	5 ×10⁻⁶ cm/s	–	–	–	–	–	–	–	–
